Measurements: the NIST ThermoML archive (doi:10.1016/j.jct.2006.07.018)

Test: molar heat capacity at constant pressure; mn = molality of the nth substance listed, in mol/kg
Conditions: 350 kPa, Liquid, high-precision DSC

CSCC[C@H](N)C(=O)O [L-methionine] + O
molar heat capacity at constant pressure [J/K/mol]
Conditions | m1 = 0.0125 | m1 = 0.025 | m1 = 0.05 | m1 = 0.0997 | m1 = 0.1501 | m1 = 0.1929
338.15 K | 75.45 | 75.53 | 75.62 | 75.84 | 76.08 | 76.26
343.15 K | 75.51 | 75.59 | 75.68 | 75.9 | 76.13 | 76.32
348.15 K | 75.58 | 75.65 | 75.75 | 75.96 | 76.2 | 76.38
353.15 K | 75.65 | 75.72 | 75.82 | 76.03 | 76.27 | 76.46
358.15 K | 75.73 | 75.8 | 75.9 | 76.11 | 76.35 | 76.54
363.15 K | 75.82 | 75.88 | 75.98 | 76.2 | 76.43 | 76.62
368.15 K | 75.91 | 75.98 | 76.08 | 76.29 | 76.53 | 76.71
373.15 K | 76.01 | 76.08 | 76.18 | 76.39 | 76.63 | 76.81
378.15 K | 76.13 | 76.19 | 76.29 | 76.5 | 76.74 | 76.92
383.15 K | 76.24 | 76.31 | 76.41 | 76.62 | 76.85 | 77.03
388.15 K | 76.38 | 76.45 | 76.54 | 76.74 | 76.98 | 77.15
393.15 K | 76.52 | 76.6 | 76.68 | 76.88 | 77.11 | 77.28
